# Experiments:
# Anti-Dox-A549 cells [1] = experiment: Cell cycle analysis by flow cytometer (PI staining); format: cell-based, human; details: for G0/G1 (%) / G2/M (%) / S (%) / Sub G1 (%): Anti-Dox-A549
# Procedure: (§1) The results of Example 2 in cell viability hinted the effects of HCD, PG, and Dox on arresting cell cycle. In this example, the phase of cell cycle of A549 cells and Anti-Dox-A549 cells after the treatment listed in Table 1 was determined by flow cytometer. Briefly, 7×10^4 cells per well were to inoculated in 12-wells plate and incubated overnight at 37° C., 5% CO2. Then, cells were treated according to the treatment listed in Table 1 by indicated time period. After treatment, cells were harvested by trypsin and fixed with 70% ethanol at −20° C. for at least 3 hr. The cells were washed in cold PBS twice and then incubated with 1 ml (v/v) staining solution (20 μg/m1 propidium iodide (PI), 0.1% Triton X-100, 0.2 mg/ml Rnase) at 37° C. for 30 minutes. Lastly, cells were analyzed by flow cytometer (Cytomics™ FC500, Backman, Fullerton, Calif., USA). Data from 10,000 cells were collected for each experimental group.
# A549 cells [2] = experiment: as above; format: cell-based, human; details: for G0/G1 (%) / G2/M (%) / S (%) / Sub G1 (%): A549
# Procedure: as §1
# Anti-Dox-A549 cells [3] = experiment: MTT assay, cell viability; format: cell-based, human
# Procedure: (§2) A549 (lung cancer cell line, non-resistance) and Anti-Dox-A549 (lung cancer cell line with resistance to Doxorubicin) were maintained in DMEM supplemented with 10% fetal bovine serum (FBS, Gibco), pH 7.4, 37° C. and with continuous circulation of 5% CO2. The medium was changed every 2 days and the cells were trypsinized with trypsin/EDTA when reaching 80%-90% confluence.
# (§3) A549 and Anti-Dox-A549 were treated by the following treatment (Table 1) for 24 or 48 hr for examining the effects of HCD, PG, and Dox on their viability.
# (§4) Dox1is referred as Dox of 1 μM; Dox2.5 is referred as Dox of 2.5 μM; Dox5 is referred as Dox of 5 μM; Dox10 is referred as Dox of 10 μM; Dox100 is referred as Dox of 100 μM. HCD2.5 is referred as HCD of 2.5 μM; HCD10 is referred as HCD of 10 μM; HCD25 is referred as HCD of 25 μM; HCD50 is referred as HCD of 50 μM. PG2.5 is referred as PG of 2.5 μM; PG5 is referred as PG of 5 μM; PG10 is referred as PG of 10 μM; PG20 is referred as PG of 20 μM.
# (§5) In this example, the effects of HCD, PG, and Dox on the viability of A549 and anti-Dox-A549 were examined. The MTT assay was employed for this purpose. The MTT (3-(4-,5-dimethylthiazol-2-yl)-2,5-diphenyltetrazolium bromide) assay is a common colorimetric method in the field for cell viability analysis. MTT (yellow tetrazolium salt) is reduced to a purple formazan by living cells and detection to the purple formazan can be calculated as the cell viability.
# (§6) Briefly, cells (A549 or Anti-Dox-A549) were seeded in 96-well plate (7×10^3 cell per well) and incubated overnight (37° C., 5% CO2).
# A549 cells [4] = experiment: MTT assay, cell viability; format: cell-based, human
# Procedure: as §2, §3, §4, §5, §6
# [5] = test system: human lung cancer in lung of mice; experiment: Mouse model bearing human lung cancer in lung (A549 or Anti-Dox-A549 cells injected)
# Procedure: The animal experiments were approved by the National Dong-Hwa University Animal Ethics Committee and the experimental protocols were used according to the “Guide for the Care and Use of Laboratory Animals” of National Dong-Hwa University. 1×10^7 of A549 cells or Anti-Dox-A549 cells were suspended in PBS to prepare cell suspensions. On day 0, C57/BL6 mice (6-8 weeks old, n=6) were weighted and anesthetic using pentobarbital (5 mg/ml). Then, the mice were injected with the cell suspension (1×10^7 cells per mouse) into the lung by IT. The injection was repeated every 7 days for 21 days. Another group of mice were injected with 10% EtOH as comparative group according to the same procedure set forth above.
# After the establishment of human lung cancer in the experimental mice, the mice were maintained for one more week and then treated with HCD (0.0318 or 1.272 mg/kg body weight, in 10% ETOH with PBS), PG (0.1615 or 0.646 mg/kg body weight, in 10% ETOH with PBS) or 10% EtOH by IT injection (intrathecal injection) to the lung. The body weight was monitored every five days for thirty days. After thirty days, the mice were sacrificed and the lungs were checked for marker of human lung adenocarcinoma by H&E and IHC staining. The livers, kidneys and spleens of the mice were also examined to confirm the cytotoxicity of HCD and PG and to see if there was any metastasis happened.
# [6] = pre-treatment (HCD especially 10 or 25 μM), then Dox 1 or 2.5 μM
# [7] = mice treated by IT injection to the lung, after thirty days, data not shown
structure (smiles),measurement,setting,value
"CC1=CCCC2C1(C)CCC(C)C2(C)CCC1=CC(=O)OC1O (stereo not drawn) [HCD, 16-hydroxy-cleroda-3,13-dine-15,16-olide]",cell cycle effect compared with the control group,"Anti-Dox-A549 cells [1]; Anti-Dox-A549 cells, Tables 2 and 4",increased cell cycle arrest at G2/M phase
same,cell cycle effect of pre-treatment and subsequent Dox,"Anti-Dox-A549 cells [1]; Anti-Dox-A549 cells, Tables 8 and 10",increased sub G1 phase and arrested at G2/M phase
same,G0/G1 (%),"Anti-Dox-A549 cells [1]; HCD 2.5 μM, 24 hr",68.2 ± 2.8%
same,G2/M (%),"Anti-Dox-A549 cells [1]; HCD 2.5 μM, 24 hr",16.5 ± 1.8%
same,S (%),"Anti-Dox-A549 cells [1]; HCD 2.5 μM, 24 hr",12.1 ± 0.8%
same,Sub G1 (%),"Anti-Dox-A549 cells [1]; HCD 2.5 μM, 24 hr",0.63 ± 0.05%
same,G0/G1 (%),"Anti-Dox-A549 cells [1]; HCD 2.5 μM, 36 hr",80.3 ± 0.6%
same,G2/M (%),"Anti-Dox-A549 cells [1]; HCD 2.5 μM, 36 hr",9.6 ± 0.3%
same,S (%),"Anti-Dox-A549 cells [1]; HCD 2.5 μM, 36 hr",7.4 ± 0.2%
same,Sub G1 (%),"Anti-Dox-A549 cells [1]; HCD 2.5 μM, 36 hr",0.93 ± 0.2%
same,G0/G1 (%),"Anti-Dox-A549 cells [1]; HCD 2.5 μM, 48 hr",82.1 ± 0.7%
same,G2/M (%),"Anti-Dox-A549 cells [1]; HCD 2.5 μM, 48 hr",8.9 ± 0.7%
same,S (%),"Anti-Dox-A549 cells [1]; HCD 2.5 μM, 48 hr",6.1 ± 0.3%
same,Sub G1 (%),"Anti-Dox-A549 cells [1]; HCD 2.5 μM, 48 hr",1.56 ± 0.2%
same,G0/G1 (%),"Anti-Dox-A549 cells [1]; HCD 10 μM, 24 hr",83.6 ± 1.4 %
same,G2/M (%),"Anti-Dox-A549 cells [1]; HCD 10 μM, 24 hr",6.6 ± 0.55 %
same,S (%),"Anti-Dox-A549 cells [1]; HCD 10 μM, 24 hr",7.0 ± 0.6%
same,Sub G1 (%),"Anti-Dox-A549 cells [1]; HCD 10 μM, 24 hr",0.73 ± 0.05%
same,G0/G1 (%),"Anti-Dox-A549 cells [1]; HCD 10 μM, 36 hr",75.8 ± 0.3 %
same,G2/M (%),"Anti-Dox-A549 cells [1]; HCD 10 μM, 36 hr",11.8 ± 1.0 %
same,S (%),"Anti-Dox-A549 cells [1]; HCD 10 μM, 36 hr",9.2 ± 0.4 %
same,Sub G1 (%),"Anti-Dox-A549 cells [1]; HCD 10 μM, 36 hr",1 ± 0.2%
same,G0/G1 (%),"Anti-Dox-A549 cells [1]; HCD 10 μM, 48 hr",82.2 ± 0.7%
same,G2/M (%),"Anti-Dox-A549 cells [1]; HCD 10 μM, 48 hr",8.3 ± 0.2%
same,S (%),"Anti-Dox-A549 cells [1]; HCD 10 μM, 48 hr",6.4 ± 0.3%
same,Sub G1 (%),"Anti-Dox-A549 cells [1]; HCD 10 μM, 48 hr",1.76 ± 0.1%
same,G0/G1 (%),"Anti-Dox-A549 cells [1]; HCD 25 μM, 24 hr",70.5 ± 2.7%
same,G2/M (%),"Anti-Dox-A549 cells [1]; HCD 25 μM, 24 hr",19.3 ± 1.7 %
same,S (%),"Anti-Dox-A549 cells [1]; HCD 25 μM, 24 hr",7.9 ± 0.8 %
same,Sub G1 (%),"Anti-Dox-A549 cells [1]; HCD 25 μM, 24 hr",1.3 ± 0.1 %
same,G0/G1 (%),"Anti-Dox-A549 cells [1]; HCD 25 μM, 36 hr",73.9 ± 2.7 %
same,G2/M (%),"Anti-Dox-A549 cells [1]; HCD 25 μM, 36 hr",17.7 ± 1.9 %
same,S (%),"Anti-Dox-A549 cells [1]; HCD 25 μM, 36 hr",5.4 ± 0.9%
same,Sub G1 (%),"Anti-Dox-A549 cells [1]; HCD 25 μM, 36 hr",3.43 ± 0.2 %
same,G0/G1 (%),"Anti-Dox-A549 cells [1]; HCD 25 μM, 48 hr",3.73 ± 1.6 %
same,G2/M (%),"Anti-Dox-A549 cells [1]; HCD 25 μM, 48 hr",21.8 ± 2.4 %
same,S (%),"Anti-Dox-A549 cells [1]; HCD 25 μM, 48 hr",11.2 ± 1.3 %
same,Sub G1 (%),"Anti-Dox-A549 cells [1]; HCD 25 μM, 48 hr",27.2 ± 0.5 %
same,cell cycle effect compared with the control group,"A549 cells [2]; A549 cells, Tables 3 and 5",increased cell cycle arrest at G2/M phase
same,cell cycle effect of pre-treatment and subsequent Dox,"A549 cells [2]; A549 cells, Tables 9 and 11",increased sub G1 phase and arrested at G2/M phase
same,G0/G1 (%),"A549 cells [2]; HCD 2.5 μM, 24 hr",77.3 ± 0.9%
same,G2/M (%),"A549 cells [2]; HCD 2.5 μM, 24 hr",9.7 ± 0.9%
same,S (%),"A549 cells [2]; HCD 2.5 μM, 24 hr",9.6 ± 0.5%
same,Sub G1 (%),"A549 cells [2]; HCD 2.5 μM, 24 hr",1.0 ± 0.2%
same,G0/G1 (%),"A549 cells [2]; HCD 2.5 μM, 36 hr",74.4 ± 2.6 %
same,G2/M (%),"A549 cells [2]; HCD 2.5 μM, 36 hr",11.8 ± 0.9%
same,S (%),"A549 cells [2]; HCD 2.5 μM, 36 hr",9.5 ± 0.4 %
same,Sub G1 (%),"A549 cells [2]; HCD 2.5 μM, 36 hr",1.1 ± 0.1%
same,G0/G1 (%),"A549 cells [2]; HCD 2.5 μM, 48 hr",80.4 ± 0.2%
same,G2/M (%),"A549 cells [2]; HCD 2.5 μM, 48 hr",8.9 ± 0.1%
same,S (%),"A549 cells [2]; HCD 2.5 μM, 48 hr",6.9 ± 0.1%
same,Sub G1 (%),"A549 cells [2]; HCD 2.5 μM, 48 hr",1.8 ± 0.2%
same,G0/G1 (%),"A549 cells [2]; HCD 10 μM, 24 hr",85.6 ± 6.9 %
same,G2/M (%),"A549 cells [2]; HCD 10 μM, 24 hr",6.1 ± 0.5 %
same,S (%),"A549 cells [2]; HCD 10 μM, 24 hr",3.9 ± 2.8 %
same,Sub G1 (%),"A549 cells [2]; HCD 10 μM, 24 hr",1 ± 0.2%
same,G0/G1 (%),"A549 cells [2]; HCD 10 μM, 36 hr",75.4 ± 1.8%
same,G2/M (%),"A549 cells [2]; HCD 10 μM, 36 hr",10.0 ± 1.2%
same,S (%),"A549 cells [2]; HCD 10 μM, 36 hr",10.7 ± 0.4 %
same,Sub G1 (%),"A549 cells [2]; HCD 10 μM, 36 hr",1.4 ± 0.2%
same,G0/G1 (%),"A549 cells [2]; HCD 10 μM, 48 hr",75.6 ± 1.8%
same,G2/M (%),"A549 cells [2]; HCD 10 μM, 48 hr",11.2 ± 0.2 %
same,S (%),"A549 cells [2]; HCD 10 μM, 48 hr",8.7 ± 0.2%
same,Sub G1 (%),"A549 cells [2]; HCD 10 μM, 48 hr",1.8 ± 0.2%
same,G0/G1 (%),"A549 cells [2]; HCD 25 μM, 24 hr",62.9 ± 3.3%
same,G2/M (%),"A549 cells [2]; HCD 25 μM, 24 hr",22.8 ± 3.0 %
same,S (%),"A549 cells [2]; HCD 25 μM, 24 hr",11.1 ± 1.3%
same,Sub G1 (%),"A549 cells [2]; HCD 25 μM, 24 hr",1.5 ± 0.2%
same,G0/G1 (%),"A549 cells [2]; HCD 25 μM, 36 hr",62.3 ± 1.3 %
same,G2/M (%),"A549 cells [2]; HCD 25 μM, 36 hr",22.8 ± 1.5 %
same,S (%),"A549 cells [2]; HCD 25 μM, 36 hr",9.2 ± 0.7 %
same,Sub G1 (%),"A549 cells [2]; HCD 25 μM, 36 hr",2.7 ± 0.1 %
same,G0/G1 (%),"A549 cells [2]; HCD 25 μM, 48 hr",61.7 ± 1.2 %
same,G2/M (%),"A549 cells [2]; HCD 25 μM, 48 hr",22.7 ± 0.5 %
same,S (%),"A549 cells [2]; HCD 25 μM, 48 hr",7.9 ± 1.3%
same,Sub G1 (%),"A549 cells [2]; HCD 25 μM, 48 hr",1.9 ± 0.5 %
same,IC50,Anti-Dox-A549 cells [3]; 24 hr treatment,~50 µM
same,effect of pre-treatment on the effects of Dox on cell viability,Anti-Dox-A549 cells [3]; [6],rescue the sensitivity of Anti-Dox-A549 cells to Dox
same,IC50,A549 cells [4]; 24 hr treatment,~50 µM
same,effect of pre-treatment on the effects of Dox on cell viability,A549 cells [4]; [6],enhance the effects of Dox on viability
same,H&E and IHC staining of the lung,"[5]; HCD 0.0318 or 1.272 mg/kg, PG 0.1615 or 0.646 mg/kg body weight, IT injection to the lung, after thirty days",less cell invention around blood vessels 1 and less cell accumulation 2 around the trachea 4
same,body weight of the experimental mice,"[5]; HCD 0.0318 or 1.272 mg/kg, PG 0.1615 or 0.646 mg/kg body weight, IT injection to the lung, monitored every five days for thirty days",did not show significantly change
same,"injury of livers, kidneys and spleens (staining)",[5]; [7],did not cause serious cytotoxicity
same,"metastasis in livers, kidneys and spleens",[5]; [7],no metastasis happened

# Reference: US20150329512A1, “METHOD AND PHARMACEUTICAL COMPOSITION FOR TREATING LUNG CANCER” (National Dong Hua University, priority 2014, published 2015)
